Source: patent publication US8865623B2, “Herbicidally active cyclic diones and derivatives thereof, processes for their preparation, compositions, and method of controlling weeds” (Syngenta Limited, priority 2009, dated 2014)

Assays:
Assay type in all cases: in vivo
Lolium perenne (LOLPE) [1] = test: Pre-emergence herbicidal activity, glasshouse pot test; conditions: Lolium perenne, 312 h, Rate 250 g/ha, evaluated after 13 days, read-out: Pre-emergence activity LOLPE (100=total damage to plant; 0=no damage to plant)
How it was run: (§1)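 Plants in standard-soil pots, glasshouse at 24/16° C, 14 h photoperiod, 65% humidity. Aqueous spray (acetone/water 50:50 formulation, 0.5% Tween 20) applied pre-emergence at day 1 or post-emergence at day 8. Percent damage recorded after 13 days.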

[2] = tested on: Alopecurus myosuroides (ALOMY); test: as above; conditions: Alopecurus myosuroides, 312 h, Rate 250 g/ha, evaluated after 13 days, read-out: Pre-emergence activity ALOMY (100=total damage to plant; 0=no damage to plant)
How it was run: as §1

Avena fatua (AVEFA) [3] = test: as above; conditions: Avena fatua, 312 h, Rate 250 g/ha, evaluated after 13 days, read-out: Pre-emergence activity AVEFA (100=total damage to plant; 0=no damage to plant)
How it was run: as §1

[4] = tested on: Echinochloa crus-galli (ECHCG); test: as above; conditions: Echinochloa crus-galli, 312 h, Rate 250 g/ha, evaluated after 13 days, read-out: Pre-emergence activity ECHCG (100=total damage to plant; 0=no damage to plant)
How it was run: as §1

Lolium perenne (LOLPE) [5] = test: Post-emergence herbicidal activity, glasshouse pot test; conditions: Lolium perenne, 312 h, rate 250 g/ha, evaluated after 13 days, read-out: Post-emergence activity LOLPE (100=total damage to plant; 0=no damage to plant)
How it was run: as §1

[6] = tested on: Alopecurus myosuroides (ALOMY); test: as above; conditions: Alopecurus myosuroides, 312 h, rate 250 g/ha, evaluated after 13 days, read-out: Post-emergence activity ALOMY (100=total damage to plant; 0=no damage to plant)
How it was run: as §1

Avena fatua (AVEFA) [7] = test: as above; conditions: Avena fatua, 312 h, rate 250 g/ha, evaluated after 13 days, read-out: Post-emergence activity AVEFA (100=total damage to plant; 0=no damage to plant)
How it was run: as §1

[8] = tested on: Echinochloa crus-galli (ECHCG); test: as above; conditions: Echinochloa crus-galli, 312 h, rate 250 g/ha, evaluated after 13 days, read-out: Post-emergence activity ECHCG (100=total damage to plant; 0=no damage to plant)
How it was run: as §1

Compound	pest or weed control at 250 g/ha (Lolium perenne (LOLPE) [1]; pre-emergence spray) [%]	pest or weed control at 250 g/ha ([2]; pre-emergence spray) [%]	pest or weed control at 250 g/ha (Avena fatua (AVEFA) [3]; pre-emergence spray) [%]	pest or weed control at 250 g/ha ([4]; pre-emergence spray) [%]	pest or weed control at 250 g/ha (Lolium perenne (LOLPE) [5]; glasshouse) [%]	pest or weed control at 250 g/ha ([6]; glasshouse) [%]	pest or weed control at 250 g/ha (Avena fatua (AVEFA) [7]; glasshouse) [%]	pest or weed control at 250 g/ha ([8]; glasshouse) [%]	pest or weed control at 250 g/ha (Lolium perenne (LOLPE) [1]; pre-emergence) [%]	pest or weed control at 250 g/ha ([2]; pre-emergence) [%]	pest or weed control at 250 g/ha (Avena fatua (AVEFA) [3]; pre-emergence) [%]	pest or weed control at 250 g/ha ([4]; pre-emergence) [%]	pest or weed control at 250 g/ha (Lolium perenne (LOLPE) [5]) [%]	pest or weed control at 250 g/ha [6] [%]	pest or weed control at 250 g/ha (Avena fatua (AVEFA) [7]) [%]	pest or weed control at 250 g/ha [8] [%]
CCc1ccc(Oc2cccc(C(F)(F)F)c2)cc1C1=C(O)C(C)(C)OC(C)(C)C1=O [Example A-185]	0	0	0	30	30	20	20	70	–	–	–	–	–	–	–	–
CCc1ccc(Oc2nc3cc(Cl)ccc3s2)cc1C1=C(O)[C@@H]2CC[C@](C)(C1=O)C2(C)C [Example A-322]	100	60	40	100	90	90	80	100	–	–	–	–	–	–	–	–
CCc1ccc(Oc2cc(C(F)(F)F)cc(Cl)n2)cc1C1=C(O)C(C)(C)OC(C)(C)C1=O [Example A-146]	0	10	0	10	20	30	30	70	–	–	–	–	–	–	–	–
CCc1ccc(Oc2ncc(I)cc2Cl)cc1C1=C(O)C(C)(C)OC(C)(C)C1=O [Example A-157]	50	40	30	80	90	90	100	100	–	–	–	–	–	–	–	–
CCc1ccc(Oc2ccc(C(F)(F)F)c(Cl)c2)cc1C1=C(O)CC2(CCOCC2)CC1=O [Example A-278]	70	60	70	0	100	100	100	100	–	–	–	–	–	–	–	–
CCc1ccc(Oc2ccc(C(F)(F)F)cn2)cc1C1=C(O)[C@H]2CC[C@H](C2)C1=O [Example A-334]	100	100	100	100	100	90	100	100	–	–	–	–	–	–	–	–
CCc1ccc(Oc2nc3cc(Cl)ccc3s2)cc1C1=C(O)CC2(CCOCC2)CC1=O [Example A-308]	70	90	80	100	100	90	100	100	–	–	–	–	–	–	–	–
COc1ccc2nc(Oc3ccc(C4CC4)c(C4=C(O)C(C)(C)OC(C)(C)C4=O)c3)sc2c1 [Example A-374]	–	–	–	–	–	–	–	–	100	50	30	90	100	90	90	100
CC1(C)OC(C)(C)C(O)=C(c2cc(Oc3ccc(F)cc3)ccc2C2CC2)C1=O [Example A-353]	–	–	–	–	–	–	–	–	30	0	0	100	50	10	10	100
